Data from US11524940B1, “Inhibitors of cysteine proteases and methods of use thereof” (priority 2020, dated 2022).

Each compound was assayed against 229E Mpro (Human coronavirus 229E (HCoV-229E), UniProt P0C6X1) (assay: 229E Mpro activity). Conditions: read-out: 229E Mpro EC50.
Type: biochemical
Description: Compounds are assayed using standard methods to assess compound activity and IC50. […] The assay buffer contains 20 mM of Tris-HCl (pH 7.3), 100 mM of NaCl, 1 mM of EDTA, 5mM of TCEP and 0.1% BSA.

229E Mpro, sequence (P0C6X1 2966-3267 limits assumed): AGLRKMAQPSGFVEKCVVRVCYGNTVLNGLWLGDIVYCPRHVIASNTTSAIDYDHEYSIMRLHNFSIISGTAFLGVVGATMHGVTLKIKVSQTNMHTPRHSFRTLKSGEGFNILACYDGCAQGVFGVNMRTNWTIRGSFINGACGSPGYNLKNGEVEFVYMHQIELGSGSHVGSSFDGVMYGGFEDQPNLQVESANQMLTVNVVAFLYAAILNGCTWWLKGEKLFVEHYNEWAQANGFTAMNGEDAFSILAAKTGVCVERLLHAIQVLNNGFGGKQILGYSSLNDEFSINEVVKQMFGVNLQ

Compound	EC50 [µM]
CC[C@H]1CN(C(=O)c2cc3c(OC)cccc3[nH]2)[C@@H]1C(=O)N[C@H](C#N)C[C@@H]1CCNC1=O [Compound 391, (2S,3S)-N-((S)-1-cyano-2-((S)-2-oxopyrrolidin-3-yl)ethyl)-3-ethyl-1-(4-methoxy-1H-indole-2-carbonyl)azetidine-2-carboxamide]	> 30
COc1cccc2[nH]c(C(=O)N3C[C@H](OC)C[C@H]3C(=O)N[C@H](C#N)C[C@@H]3CCNC3=O)cc12 [Compound 407]	< 2
CCO[C@@H]1C[C@@H](C(=O)N[C@H](C#N)C[C@@H]2CCNC2=O)N(C(=O)c2cc3c(OC)cccc3[nH]2)C1 [Compound 409, (2S,4R)-N-[(1S)-1-cyano-2-[(3S)-2-oxopyrrolidin-3-yl]ethyl]-4-ethoxy-1-(4-methoxy-1H-indole-2-carbonyl)pyrrolidine-2-carboxamide]	> 30
N#C[C@H](C[C@@H]1CCNC1=O)NC(=O)[C@@H]1CS[C@H]2CC[C@H](NC(=O)OCc3ccccc3)C(=O)N21 [Compound 457, Benzyl((3R,6S,8aS)-3-(((S)-1-cyano-2-((S)-2-oxopyrrolidin-3-yl)ethyl)carbamoyl)-5-oxohexahydro-2H-thiazolo[3,2-a]pyridin-6-yl)carbamate]	> 30
Cc1cc(C(=O)N[C@H]2CC[C@@H]3SC[C@@H](C(=O)N[C@H](C#N)C[C@@H]4CCNC4=O)N3C2=O)no1 [Compound 459, N-((3R,6S,8aS)-3-(((S)-1-cyano-2-((S)-2-oxopyrrolidin-3-yl)ethyl)carbamoyl)-5-oxohexahydro-2H-thiazolo[3,2-a]pyridin-6-yl)-5-methylisoxazole-3-carboxamide]	> 30
N#C[C@H](C[C@@H]1CCNC1=O)NC(=O)[C@H](CC1CC1)N1CCC2(CCCN2)C1=O (stereo partly drawn) [Compound 471, N-[(1S)-1-cyano-2-[(3S)-2-oxopyrrolidin-3-yl]ethyl]-3-cyclopropyl-2-(6-oxo-1,7-diazaspiro[4.4]nonan-7-yl)propanamide]	10 to 30
N#C[C@H](C[C@@H]1CCNC1=O)NC(=O)[C@@H]1CS[C@H]2CC[C@H](N)C(=O)N21 [Compound 479, (3R,6S)-6-amino-N-[(1S)-1-cyano-2-[(3S)-2-oxopyrrolidin-3-yl]ethyl]-5-oxo-2,3,6,7,8,8a-hexahydrothiazolo[3,2-a]pyridine-3-carboxamide]	10 to 30
N#C[C@H](C[C@@H]1CCNC1=O)NC(=O)[C@@H]1CCc2ccc(NCC(=O)Oc3ccccc3)c(=O)n21 [Compound 483, phenyl 2-[[(3S)-3-[[(1S)-1-cyano-2-[(3S)-2-oxopyrrolidin-3-yl]ethyl]carbamoyl]-5-oxo-2,3-dihydro-1H-indolizin-6-yl]amino]acetate]	> 30
COc1cccc2[nH]c(C(=O)N[C@@H](CC3CC3)C(=O)N[C@@H](C#N)C[C@@H]3CCCNC3=O)cc12 [Compound 491B]	10 to 30
COc1cccc2[nH]c(C(=O)N[C@H](C(=O)N[C@H](C#N)C[C@@H]3CCNC3=O)C3CC4CC4C3)cc12 (stereo partly shown) [Compound 499]	< 2
N#C[C@H](C[C@@H]1CCNC1=O)NC(=O)[C@H](CC1CC1)NC(=O)c1cc2c(OCCN3CCOCC3)cccc2[nH]1 [Compound 515, N-[(1S)-2-[[(1S)-1-cyano-2-[(3S)-2-oxopyrrolidin-3-yl]ethyl]amino]-1-(cyclopropylmethyl)-2-oxo-ethyl]-4-(2-morpholinoethoxy)-1H-indole-2-carboxamide]	< 2
N#C[C@H](C[C@@H]1CCNC1=O)NC(=O)[C@H](CC1CC1)NC(=O)c1nc2c(Cl)cc(Cl)cc2[nH]1 [Compound 525, 4,6-dichloro-N-[(1S)-2-[[(1S)-1-cyano-2-[(3S)-2-oxopyrrolidin-3-yl]ethyl]amino]-1-(cyclopropylmethyl)-2-oxo-ethyl]-1H-benzimidazole-2-carboxamide]	< 2
N#C[C@H](C[C@@H]1CCNC1=O)NC(=O)[C@H](CC1CC1)NC(=O)c1cc2ccc(Cl)cc2[nH]1 [Compound 529, 6-chloro-N-[(1S)-2-[[(1S)-1-cyano-2-[(3S)-2-oxopyrrolidin-3-yl]ethyl]amino]-1-(cyclopropylmethyl)-2-oxo-ethyl]-1H-indole-2-carboxamide]	< 2
CCO[C@@H]1C[C@@H](C(=O)N[C@H](C#N)C[C@@H]2CCNC2=O)N(C(=O)c2cc3c(OC)cccc3[nH]2)C1 [Compound 535]	> 30
COc1cccc2[nH]c(C(=O)N3C[C@H](C(F)(F)F)C[C@H]3C(=O)N[C@H](C#N)C[C@@H]3CCNC3=O)cc12 [Compound 549, (2S,4R)-N-[(1S)-1-cyano-2-[(3S)-2-oxopyrrolidin-3-yl]ethyl]-1-(4-methoxy-1H-indole-2-carbonyl)-4-(trifluoromethyl)pyrrolidine-2-carboxamide]	< 2
COc1cccc2[nH]c(C(=O)N3C[C@H](SC)C[C@H]3C(=O)N[C@H](C#N)C[C@@H]3CCNC3=O)cc12 [Compound 551, (2S,4R)-N-[(1S)-1-cyano-2-[(3S)-2-oxopyrrolidin-3-yl]ethyl]-1-(4-methoxy-1H-indole-2-carbonyl)-4-methylsulfanyl-pyrrolidine-2-carboxamide]	< 2

Compound	EC50 [µM]
CCCNC(=O)OC(C#N)[C@H](C[C@@H]1CCNC1=O)NC(=O)[C@H](CC(C)C)NC(=O)c1cc2c(OC)cccc2[nH]1 (stereo partly shown) [Compound 581]	> 30
COc1cccc2[nH]c(C(=O)N[C@@H](CC(C)C)C(=O)N[C@@H](C[C@@H]3CCNC3=O)C(C#N)OC(=O)NC(C)C)cc12 (stereo partly shown) [Compound 583]	> 30
COc1cccc2[nH]c(C(=O)N3C[C@H](c4ccccc4)C[C@H]3C(=O)N[C@H](C#N)C[C@@H]3CCCNC3=O)cc12 [Compound 611, (2S,4S)-N-[(1S)-1-cyano-2-[(3S)-2-oxo-3-piperidyl]ethyl]-1-(4-methoxy-1H-indole-2-carbonyl)-4-phenyl-pyrrolidine-2-carboxamide]	< 2
COc1ccc2[nH]c(C(=O)N[C@@H](CC3CC3)C(=O)N[C@H](C#N)C[C@@H]3CCCNC3=O)cc2c1 [Compound 619, N-[(1S)-2-[[(1S)-1-cyano-2-[(3S)-2-oxo-3-piperidyl]ethyl]amino]-1-(cyclopropylmethyl)-2-oxo-ethyl]-5-methoxy-1H-indole-2-carboxamide]	< 2
COc1ccc2[nH]c(C(=O)N[C@@H](CC3CC3)C(=O)N[C@H](C#N)C[C@@H]3CCCNC3=O)cc2n1 [Compound 621, N-[(1S)-2-[[(1S)-1-cyano-2-[(3S)-2-oxo-3-piperidyl]ethyl]amino]-1-(cyclopropylmethyl)-2-oxo-ethyl]-5-methoxy-1H-pyrrolo[3,2-b]pyridine-2-carboxamide]	< 2
COc1nccc2[nH]c(C(=O)N[C@@H](CC3CC3)C(=O)N[C@H](C#N)C[C@@H]3CCCNC3=O)cc12 [Compound 623, N-[(1S)-2-[[(1S)-1-cyano-2-[(3S)-2-oxo-3-piperidyl]ethyl]amino]-1-(cyclopropylmethyl)-2-oxo-ethyl]-4-methoxy-1H-pyrrolo[3,2-c]pyridine-2-carboxamide]	> 30
N#C[C@H](C[C@@H]1CCCNC1=O)NC(=O)[C@H](CC1CC1)NC(=O)c1cc2cnccc2[nH]1 [Compound 625, N-((S)-1-(((S)-1-cyano-2-((S)-2-oxopiperidin-3-yl)ethyl)amino)-3-cyclopropyl-1-oxopropan-2-yl)-1H-pyrrolo[3,2-c]pyridine-2-carboxamide]	< 2
N#C[C@H](C[C@@H]1CCCNC1=O)NC(=O)[C@H](CC1CC1)NC(=O)c1cc2cc(Cl)ccc2[nH]1 [Compound 633, 5-chloro-N-[(1S)-2-[[(1S)-1-cyano-2-[(3S)-2-oxo-3-piperidyl]ethyl]amino]-1-(cyclopropylmethyl)-2-oxo-ethyl]-1H-indole-2-carboxamide]	< 2
N#C[C@H](C[C@@H]1CCCNC1=O)NC(=O)[C@@H](CC1CC1)NC(=O)c1cc2cccc(Cl)c2[nH]1 [Compound 639A, 7-Chloro-N-[(1R)-2-[[(1S)-1-cyano-2-[(3S)-2-oxo-3-piperidyl]ethyl]amino]-1-(cyclopropylmethyl)-2-oxo-ethyl]-1H-indole-2-carboxamide]	< 2
N#C[C@H](C[C@@H]1CCNC1=O)NC(=O)[C@H](CC1CC1)NC(=O)c1cc2c(Cl)cccc2[nH]1 [Compound 647, 4-chloro-N-[(1S)-2-[[(1S)-1-cyano-2-[(3S)-2-oxopyrrolidin-3-yl]ethyl]amino]-1-(cyclopropylmethyl)-2-oxo-ethyl]-1H-indole-2-carboxamide]	< 2
COc1cccc2[nH]c(C(=O)N3C[C@H](C(C)(C)C)C[C@H]3C(=O)N[C@H](C#N)C[C@@H]3CCNC3=O)cc12 [Compound 655, (2S,4S)-4-(tert-butyl)-N-((S)-1-cyano-2-((S)-2-oxopyrrolidin-3-yl)ethyl)-1-(4-methoxy-1H-indole-2-carbonyl)pyrrolidine-2-carboxamide]	10 to 30
COc1cccc2[nH]c(C(=O)N[C@H](CN[C@H](C#N)C[C@@H]3CCNC3=O)CC(C)(C)C)cc12 [Compound 659, N-[(1S)-1-[[[(1S)-1-cyano-2-[(3S)-2-oxopyrrolidin-3-yl]ethyl]amino]methyl]-3,3-dimethyl-butyl]-4-methoxy-1H-indole-2-carboxamide]	> 30
COc1cccc2[nH]c(C(=O)N[C@@H](CC(C)(C)F)C(=O)N[C@H](C#N)C[C@@H]3CCCNC3=O)cc12 [Compound 667, N-[(1S)-1-[[(1S)-1-cyano-2-[(3S)-2-oxo-3-piperidyl]ethyl]carbamoyl]-3-fluoro-3-methyl-butyl]-4-methoxy-1H-indole-2-carboxamide]	< 2
N#C[C@H](C[C@@H]1CCCNC1=O)NC(=O)[C@H](CC1CC1)NC(=O)c1cc2c(Cl)cncc2[nH]1 [Compound 669, 4-chloro-N-((S)-1-(((S)-1-cyano-2-((S)-2-oxopiperidin-3-yl)ethyl)amino)-3-cyclopropyl-1-oxopropan-2-yl)-1H-pyrrolo[2,3-c]pyridine-2-carboxamide]	< 2
N#C[C@H](C[C@@H]1CCNC1=O)NC(=O)[C@H](CC1CC1)NC(=O)c1cc2c(Cl)ccc(Cl)c2[nH]1 [Compound 691, 4,7-dichloro-N-[(1S)-2-[[(1S)-1-cyano-2-[(3S)-2-oxopyrrolidin-3-yl]ethyl]amino]-1-(cyclopropylmethyl)-2-oxo-ethyl]-1H-indole-2-carboxamide]	< 2
